ChEMBL document CHEMBL3046525, “In vitro antiproliferative activity of 11-aminoalkylamino-substituted 5H-indolo[2,3-b]quinolines; improving activity of neocryptolepines by installation of ester substituent” (Med Chem Res, 2013)

System: MV4-11
Test: Antiproliferative activity against Homo sapiens (human) MV411 cells after 72 hr by MTT assay
Assay type: functional, cell-based
Settings: MV4-11, 72 h

IC50 [nM] | Structure (SMILES)
170 | Cn1c2nc3ccccc3c-2c(NCCCO)c2ccccc21
7170 | CN1CCCN(c2c3c4ccccc4nc-3n(C)c3ccccc23)CC1
100 | Cn1c2nc3ccccc3c-2c(NCCCCN)c2ccccc21
56 | COC(=O)c1ccc2nc3n(C)c4ccc(Br)cc4c(NCCCN)c-3c2c1
> 25000 | Cn1c2nc3ccc(C(=O)O)cc3c-2c(NCCCN)c2ccccc21
9280 | CN(C)CCNc1c2c3cc(C(=O)O)ccc3nc-2n(C)c2ccccc12
> 25000 | CN(C)CCCNc1c2c3cc(C(=O)O)ccc3nc-2n(C)c2ccccc12
> 25000 | Cn1c2nc3ccc(C(=O)O)cc3c-2c(NCCCO)c2ccccc21

System: not listed separately
Test: Selectivity ratio of IC50 for mouse BALB/3T3 cells to IC50 for human HCT116 cells
Assay type: cell-based, HCT-116
Settings: BALB/3T3 cells versus HCT116 cells, read-out: Ratio IC50

Structure (SMILES) | selectivity ratio
COC(=O)c1ccc2c(c1)c(NCCCN)c1c3ccccc3nc-1n2C | 4
COC(=O)c1ccc2nc3n(C)c4ccccc4c(NCCCO)c-3c2c1 | 4
COC(=O)c1ccc2nc3n(C)c4ccccc4c(NCCCN)c-3c2c1 | 4
COC(=O)c1ccc2nc3n(C)c4ccccc4c(N4CCOCC4)c-3c2c1 | 4
COC(=O)c1ccc2nc3n(C)c4ccccc4c(N4CCCN(C)CC4)c-3c2c1 | 4
COC(=O)c1ccc2nc3n(C)c4ccccc4c(NCCCCN)c-3c2c1 | 4
COC(=O)c1ccc2nc3n(C)c4ccccc4c(NCCN(C)C)c-3c2c1 | 4
COC(=O)c1ccc2nc3n(C)c4ccccc4c(NCCCN(C)C)c-3c2c1 | 4
COC(=O)c1ccc2nc3n(C)c4ccc(C(=O)OC)cc4c(NCCCN)c-3c2c1 | 28
COC(=O)c1ccc2nc3n(C)c4ccc(Br)cc4c(NCCCN)c-3c2c1 | 4
COC(=O)c1ccc2c(c1)c(NCCCN)c1c3cc(Br)ccc3nc-1n2C | 4
Cn1c2nc3ccc(Br)cc3c-2c(NCCCN)c2cc(Cl)ccc21 | 4

System: A549
Test: Antiproliferative activity against Homo sapiens (human) A549 cells after 72 hr by SRB assay
Assay type: functional, cell-based
Settings: A549, 72 h

IC50 [nM] | Structure (SMILES)
194 | COC(=O)c1ccc2nc3n(C)c4ccc(Br)cc4c(NCCCN)c-3c2c1

System: BALB/3T3
Test: Cytotoxicity against Mus musculus (mouse) BALB/3T3 cells after 72 hr by SRB assay
Assay type: cell-based
Settings: BALB/3T3, 72 h

Structure (SMILES) | IC50 [nM]
COC(=O)c1ccc2nc3n(C)c4ccc(Br)cc4c(NCCCN)c-3c2c1 | 833
